Test results as given in paper PMC9194936, “Preclinical Activity and Pharmacokinetic/Pharmacodynamic Relationship for a Series of Novel Benzenesulfonamide Perforin Inhibitors” (ACS Pharmacology & Translational Science, 2022).

Legend:
[1] = tested on: perforin-dependent cytotoxicity of KHYG-1 NK cells on K562 target cells; assay: KHYG-1 cytotoxicity assay (51Cr-labeled K562 target cells); format: cell-based; details: Homo sapiens; concentration inhibiting 90% of perforin-dependent cytotoxicity; K562 targets, effector/target 2:1, 4 h, RPMI 0.1% BSA; read-out: KHYG-1 IC90
Protocol: (Table 1). […] An IC90 was used rather than an IC50 as we anticipated that elevated suppression of perforin activity is likely required to preserve the transplanted bone marrow stem cells in vivo.
The inhibition of the cytotoxic activity of KHYG-1 NK cells on K562 target cells was determined as described previously.[14] Briefly, compounds were added to KHYG-1 cells at 6–7 concentrations ranging from 20 μM to 312.5 nM in 2-fold dilutions in RPMI medium (Thermo Fisher Scientific, Waltham, MA) supplemented with 0.1% bovine serum albumin (BSA; Sigma-Aldrich, St. Louis, MO) for 20 min. ^51Cr-labeled K562 leukemia target cells were added to KHYG-1 cells at an effector/target ratio of 2:1 and incubated at 37 °C for 4 h. ^51Cr release was assayed using a Harvesting Press (Skatron Instruments, Lier, Norway), and radioactivity was estimated on a Wallac Wizard 1470 Automatic γ counter (Turku, Finland). The IC90 values were calculated by fitting a four-parameter logistic sigmoidal dose–response curve to the data using Prism version 8 (GraphPad, San Diego, CA). Each IC90 value represents the mean of at least three independent experiments, where six to seven concentrations were tested in triplicate for each compound.

[2] = Plasma protein binding by equilibrium dialysis; format: in vitro ADME, mouse; details: CD1, pH 7.4; mouse plasma, 10 μM, equilibrium dialysis
Protocol: The plasma protein binding of the compounds was determined by equilibrium dialysis (12–14 kDa cutoff membrane). […] The dialysis unit was covered with an adhesive sealing film to prevent evaporation of the contents and placed in an incubator (Innova-42, New Brunswick Scientific) maintained at 37 °C with gentle mixing (80 rpm) for 6 h. Next, a 10 μL sample was aspirated from the plasma side and mixed with 90 μL of fresh PBS, whereas a 90 μL sample from the buffer side was removed and combined with 10 μL of drug-free plasma to ensure uniform matrix composition. Ice-cold acetonitrile (300 μL; Merck Millipore, Burlington, MA) containing internal standard (a BZS analogue of similar chemical structure) was added to each sample to precipitate protein and was vortexed for 2 min and centrifuged for 5 min at 13 000 rpm. The supernatant was diluted with 0.01% formic acid in ultrapure water (Milli-Q) (1:1) and quantitated by liquid chromatography–tandem mass spectrometry (LC-MS/MS). Each compound was tested in triplicate alongside control compounds known to have low (e.g., lidocaine) and high (e.g., amitriptyline) plasma protein binding. For media binding studies, the same assay was used, but RPMI with 0.1% BSA was used in place of CD1 mouse plasma.

[3] = target: T1, perforin (Mus musculus, UniProt P10820); assay: In vivo perforin inhibition (allogeneic bone marrow transfer assay); details: for % perforin inhibition, spleen: 24 h after transplant
T1 construct: endogenous in cells; host or cells: recipient cytotoxic lymphocytes (NK/CTL) of wild-type C57BL/6 mice, in vivo
T1 sequence (P10820 21-554): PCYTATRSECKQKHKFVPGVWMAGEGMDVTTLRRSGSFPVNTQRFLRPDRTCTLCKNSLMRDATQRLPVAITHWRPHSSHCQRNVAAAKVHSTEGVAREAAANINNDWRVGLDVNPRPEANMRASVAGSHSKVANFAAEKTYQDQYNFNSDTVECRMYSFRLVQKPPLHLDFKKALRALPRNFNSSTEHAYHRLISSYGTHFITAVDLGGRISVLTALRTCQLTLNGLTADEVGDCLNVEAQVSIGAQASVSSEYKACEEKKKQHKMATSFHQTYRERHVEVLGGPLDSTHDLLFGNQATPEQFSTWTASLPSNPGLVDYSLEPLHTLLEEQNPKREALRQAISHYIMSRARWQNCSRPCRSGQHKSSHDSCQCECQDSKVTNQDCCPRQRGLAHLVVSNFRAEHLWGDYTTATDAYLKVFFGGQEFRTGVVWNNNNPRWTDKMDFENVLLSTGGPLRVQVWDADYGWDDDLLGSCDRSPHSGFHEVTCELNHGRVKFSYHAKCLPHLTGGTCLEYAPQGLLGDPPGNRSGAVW
Protocol: This model was selected as a surrogate assay for graft rejection during allogeneic bone marrow/stem cell transplantation to enable rapid testing of perforin inhibition in vivo. Mice were transplanted with a mixture of equal numbers of allogeneic immunologically mismatched and syngeneic immunologically matched bone marrow. […] Allogeneic cell survival in spleen and peripheral blood was determined 24 h after transplant, using C57BL/6 perforin-deficient mice (100% perforin inhibition) and untreated C57BL/6 mice (0% perforin inhibition) as controls.
Compounds were tested for in vivo efficacy as described previously.[14] Age- (8–12 weeks) and sex-matched wild-type (H-2D^b, CD45.2^+) or perforin-deficient C57BL/6 mice (C57BL/6-Prf1^tm1Sdz/J; H-2D^b, CD45.2^+) received 12 ×10^6 bone marrow cells from both allogeneic BALB/c (H-2D^d) MHC-mismatched and syngeneic C57BL/6 (H-2D^b) MHC-matched mice (24 × 10^6 cells total). The wild-type recipient mice were treated with perforin inhibitor compounds by intraperitoneal injection in 20% hydroxypropyl-β-cyclodextrin vehicle (10 mL/kg), or with vehicle alone; perforin-deficient mice remained untreated. The mice were euthanized 24 h after bone marrow transfer for peripheral blood mononuclear cell (PBMC) and spleen collection.
Throughout the study, we utilized two strategies to distinguish between recipient, donor allogeneic, and donor syngeneic cells based on either fluorescent labeling prior to transplant or congenic marker expression (CD45.1/CD45.2). In the fluorescent dye approach, allogeneic wild-type BALB/c (H-2D^d, CD45.2^+) bone marrow was labeled with 1 μM carboxyfluorescein succinimidyl ester (CFSE) prior to mixing with syngeneic bone marrow from C57BL/6 congenic mice (CD45.1^+). Twenty-four hours after cell transfer, the harvested cells were stained with anti-CD45.1-phycoerythrin and anti-TER119-allophycocyanin monoclonal antibodies (BioLegend, San Diego, CA). TER119 was used for erythroid exclusion prior to the identification of allogeneic (CFSE^+) and syngeneic (CD45.1^+) donor cells. Using a second purely congenic marker approach, allogeneic BALB/c congenic (H-2D^d, CD45.1^+) bone marrow was mixed with syngeneic C57BL/6 double congenic (H-2D^b, CD45.1^+CD45.2^+) bone marrow prior to transfer. The harvested cells were stained with anti-CD45.1-phycoerythrin, anti-CD45.2-phycoerythrin-cyanine-7, and anti-TER119-allophycocyanin monoclonal antibodies (BioLegend, San Diego, CA). TER119 was used for erythroid exclusion, prior to identification of allogeneic donor (CD45.1^+), syngeneic donor (CD45.1^+ CD45.2^+), and recipient (CD45.2^+) cells. Dead cells were excluded using 7-aminoactinomycin D. Samples were acquired with an LSR Fortessa (BD Biosciences) and analyzed using FlowJo version 9 software (BD Biosciences). Prism version 9 (GraphPad) was used to calculate CTL indices as the percentage survival of syngeneic donor cells divided by the percentage survival of allogeneic donor cells. […] In vivo perforin inhibition animal experiments were approved by the Animal Ethics Committee of the QIMR Berghofer Medical Research Institute.

[4] = tested on: recombinant perforin; set-up: method as in PMID 28582670, PMID 28110869; details: lytic activity of recombinant perforin against Jurkat T leukemia cells; cited from earlier work
[5] = set-up: method as in PMID 28582670; AUC: concentration or dose not given beside the values; details: mouse plasma; cited from earlier work
[6] = Splenocyte cellularity and tolerability in the bone marrow transfer assay; format: in vivo
Protocol: For the determination of splenic cell counts, mouse spleens were harvested and the cells dispersed in media by gentle teasing and then centrifuged at 500g. Cell pellets were resuspended in media and total spleen cell counts were performed manually using a standard hemocytometer and light microscopy. […] Peripheral blood cell counts and spleen white blood cell counts were determined on a Beckman Coulter Ac.T diff hematology analyzer.

[7] = 100 mg/kg qd x 4 (0, 24, 48 h prior to and 18 h after transfer)
[8] = all dose levels (100, 75 and 50% of MTD), qd x 4

| fraction unbound at 6 h, 10 μM [2] | % perforin inhibition, spleen [3, 7] | % perforin inhibition, spleen ([3]; 160 mg/kg qd x 4 (0, 24, 48 h prior to and 18 h after transfer)) | SMILES | IC90 [1] | IC50 [4] | AUC [5] | Cmax [5] | % perforin inhibition, spleen ([3]; 60 mg/kg qd x 4 (0, 24, 48 h prior to and 18 h after transfer)) | % perforin inhibition, spleen ([3]; 90 mg/kg qd x 4 (0, 24, 48 h prior to and 18 h after transfer)) | reductions in splenocyte number [6, 8] | tolerability [6, 8] | % perforin inhibition, spleen ([3]; 120 mg/kg qd x 4 (0, 24, 48 h prior to and 18 h after transfer)) | increase in allogeneic bone marrow survival in the spleen, % of that seen in perforin-deficient mice ([3]; dose at or near the MTD, 0, 24, 48 h prior to and 18 h after cell transfer) | reduction in splenocyte cellularity ([6]; dose at or near MTD, qd x 4, after allogeneic bone marrow transplantation) |
| --- | --- | --- | --- | --- | --- | --- | --- | --- | --- | --- | --- | --- | --- | --- |
| 0.0048 | 14.88% |  | CN1Cc2cc(-c3ccc(-c4cncc(NS(=O)(=O)c5c(F)cc(F)cc5F)c4)s3)ccc2C1=O [Compound 5, 2,4,6-trifluoro-N-{5-[5-(2-methyl-1-oxo-2,3-dihydro-1H-isoindol-5-yl)-2-thienyl]-3-pyridinyl}benzenesulfonamide] | 10.1 ± 1.8 µM | 1760 nM | 1019 µM·h | 124 µM |  |  |  |  |  |  |  |
| 0.0003 |  | 39.14% | CN1Cc2cc(-c3ccc(-c4cnc(F)c(NS(=O)(=O)c5ccc(F)cc5F)c4)s3)ccc2C1=O [Compound 8, 2,4-difluoro-N-{2-fluoro-5-[5-(2-methyl-1-oxo-2,3-dihydro-1H-isoindol-5-yl)-2-thienyl]-3-pyridinyl}benzenesulfonamide] | 3.54 ± 0.65 µM | 1990 nM | 2885 µM·h | 236 µM |  |  |  |  |  |  |  |
|  |  |  | CN1Cc2cc(-c3ccc(-c4cncc(NS(=O)(=O)c5ccc(F)cc5F)c4)s3)ccc2C1=O [Compound 3, 2,4-difluoro-N-{5-[5-(2-methyl-1-oxo-2,3-dihydro-1H-isoindol-5-yl)-2-thienyl]-3-pyridinyl}benzenesulfonamide] | 16 ± 3.6 µM |  | 220 µM·h | 9.8 µM | 7% | 10% | only minor reductions | well tolerated |  |  |  |
| 0.0031 | 80.53% |  | CN1Cc2cc(-c3ccc(-c4cncc(NS(=O)(=O)c5ccc([N+](=O)[O-])cc5)c4)s3)ccc2C1=O [Compound 4, N-{5-[5-(2-methyl-1-oxo-2,3-dihydro-1H-isoindol-5-yl)-2-thienyl]-3-pyridinyl}-4-nitrobenzenesulfonamide] | 19.9 ± 3.7 µM | 3130 nM | 383 µM·h | 64.4 µM |  |  |  |  |  |  |  |
| 0.0023 | 22.70% |  | CN1Cc2cc(-c3ccc(-c4cncc(NS(=O)(=O)c5ccc(C#N)cc5)c4)s3)ccc2C1=O [Compound 6, 4-cyano-N-{5-[5-(2-methyl-1-oxo-2,3-dihydro-1H-isoindol-5-yl)-2-thienyl]-3-pyridinyl}benzenesulfonamide] | 30.9 ± 10.5 µM | 5170 nM | 642 µM·h | 87.3 µM |  |  |  |  |  |  |  |

| SMILES | fraction unbound at 6 h, 10 μM [2] | % perforin inhibition, spleen [3, 7] | % perforin inhibition, spleen ([3]; 160 mg/kg qd x 4 (0, 24, 48 h prior to and 18 h after transfer)) | IC90 [1] | IC50 [4] | AUC [5] | Cmax [5] | % perforin inhibition, spleen ([3]; 60 mg/kg qd x 4 (0, 24, 48 h prior to and 18 h after transfer)) | % perforin inhibition, spleen ([3]; 90 mg/kg qd x 4 (0, 24, 48 h prior to and 18 h after transfer)) | reductions in splenocyte number [6, 8] | tolerability [6, 8] | % perforin inhibition, spleen ([3]; 120 mg/kg qd x 4 (0, 24, 48 h prior to and 18 h after transfer)) | increase in allogeneic bone marrow survival in the spleen, % of that seen in perforin-deficient mice ([3]; dose at or near the MTD, 0, 24, 48 h prior to and 18 h after cell transfer) | reduction in splenocyte cellularity ([6]; dose at or near MTD, qd x 4, after allogeneic bone marrow transplantation) |
| --- | --- | --- | --- | --- | --- | --- | --- | --- | --- | --- | --- | --- | --- | --- |
| CN1Cc2cc(-c3ccc(-c4cnc(Cl)c(NS(=O)(=O)c5ccc(F)cc5F)c4)s3)ccc2C1=O [Compound 9, N-{2-chloro-5-[5-(2-methyl-1-oxo-2,3-dihydro-1H-isoindol-5-yl)-2-thienyl]-3-pyridinyl}-2,4-difluorobenzenesulfonamide] | 0.0002 |  |  | 1.86 ± 0.44 µM | 1030 nM | 2364 µM·h | 149 µM |  |  |  |  | 61.28% | 61% | much higher |
